Experimental data: paper PMC9229798, “Antioxidant Activity and Cytotoxicity of Aromatic Oligosulfides” (Molecules, 2022)

Experiments:
[1] = parameters: method as in doi:10.3906/kim-1904-40; conditions: PASS, cited from earlier work
[2] = parameters: method as in doi:10.1016/j.arabjc.2021.103068; conditions: read-out: DPPH IC50; cited from earlier work
[3] = system: A-549; assay: Annexin V/Dead Cell assay; format: cell-based, human; conditions: A-549, 2 × IC50, 48 h
Excerpt: (§1) Apoptosis or programmed cell death is an important and active regulatory pathway of cell growth and proliferation. Cells respond to specific induction signals by initiating intracellular processes that result in characteristic physiological changes. Among these are externalization of phosphatidylserine (PS) to the cell surface, cleavage and degradation of specific cellular proteins, compaction and fragmentation of nuclear chromatin, and loss of membrane integrity. Phosphatidylserine (PS) is normally located in the inner part of the cell membrane. In the initial stage of apoptosis, the PS residues which translocated to the extracellular are detected by Annexin V, which is a calcium-dependent phospholipid-binding protein with a high affinity for PS. Annexin V flow cytometric assay was used to evaluate the compounds’ ability to induce apoptosis and influence on cell death. HCT-116 colon carcinoma and A-549 lung adenocarcinoma cells were treated by disulfides 2 and 3.
(§2) HCT-116 (colon carcinoma) and A-549 (lung carcinoma) cells (1 × 10^6) were seeded in a six-well plate and were incubated for 24 h. […] After incubation, the cells were harvested by trypsinization, precipitated by centrifugation (3000 rpm), washed with PBS, recentrifuged, and the buffer was removed. DMEM was added to achieve a cell concentration of 400–1000 cells/µL. The Muse Annexin V & Dead Cell Kit reagent (100 µL) was added to the cells and […] for 20 min at room temperature in the dark. The results were recorded on a Muse Cell Analyzer flow cytometer (Merck, Rahway, NJ, USA).

[4] = system: HCT-116; assay: Annexin V/Dead Cell assay; format: cell-based, human
Excerpt: as §1, §2

[5] = TBARS accumulation in liver homogenate (long-term LPO); parameters: species or system Russian sturgeon; conditions: 0.1 mM
Excerpt: The liver is the main organ that all metabolic products pass through. In addition, proteins of the antioxidant defense system are concentrated in the liver, which prevent the toxic effects of various ROS. The oxidation of liver lipids, which compose cell membranes, directly causes cell damage in vivo. Therefore, the liver is similar to biological systems and is considered as a classic model system for studying LPO processes in vitro and in vivo [56]. We studied the antioxidant potential of the compounds on a model system of a long-term process of lipid peroxidation in sturgeon liver. The assay allowed evaluation of the effect of the compounds under prolonged oxidative stress when possible an increase in peroxidation processes and a decrease of antioxidants concentration over time, and inversion of antioxidant/prooxidant properties in vitro [57].
The experiments in vitro were carried out using the liver of a Russian sturgeon raised in a unique aqua complex for the reproduction of valuable fish species of the Federal Research Center Southern Scientific Center of the Russian Academy of Sciences within the framework of State Assignment (Project No. 122020100328-1). All manipulations were conducted according to the international rules GLP (Good Laboratory Practice). The samples of fish liver were fixed in the cold.
The LPO intensity was estimated according to the accumulation of carbonyl products forming a colored complex with thiobarbituric acid (TBARS). A liver of Russian sturgeon (10 g) was homogenized in the cold, and the studied compounds were added at a concentration of 0.1 mM in EtOH to a solution of 1.2% potassium chloride (390 mL) precooled to 0–4 °C. The absence of any influence of EtOH on the LPO rate in the control was preliminarily established under these conditions. […] The supernatant was sampled, and the extinction of sample was measured using a SF-103 spectrophotometer at λ = 532 nm relative to the control sample. […]

[6] = probability of lack of activity
[7] = probability of presence of activity

Compound | Antidote, Pi [1, 6] | Free radical scavenger, Pi [1, 6] | Nitric oxide scavenger, Pi [1, 6] | Oxygen scavenger, Pi [1, 6] | Antidote, Pa [1, 7] | Free radical scavenger, Pa [1, 7] | Nitric oxide scavenger, Pa [1, 7] | Oxygen scavenger, Pa [1, 7] | Early Apop. [3] [%] | total apoptotic cells [3] [%] | further results
c1ccc(SSc2ccccc2)cc1 [Compound 5, diphenyl disulfide] | 0.078 | 0.056 | 0.013 | 0.018 | 0.228 | 0.230 | 0.274 | 0.621 | – | – | –
CC(C)(C)c1cc(SSc2cc(C(C)(C)C)c(O)c(C(C)(C)C)c2)cc(C(C)(C)C)c1O [Compound 6, bis(3,5-di-tert-butyl-4-hydroxyphenyl) disulfide] | 0.027 | 0.012 | 0.012 | 0.044 | 0.317 | 0.473 | 0.278 | 0.519 | – | – | Antioxidant, Pi [1, 6]: 0.005; Antioxidant, Pa [1, 7]: 0.549; IC50 [2]: 20.09 ± 0.02 µM
COc1ccc(SSc2ccc(OC)c(OC)c2)cc1OC [Compound 3, bis(3,4-dimethoxyphenyl) disulfide] | – | – | – | – | – | – | – | – | 38.2 | 42.6 | Early Apop. ([4]; HCT-116, 2 × IC50, 24 h): 9.1%; Late Apop./Dead ([4]; HCT-116, 2 × IC50, 24 h): 2.7%; total apoptotic cells ([4]; HCT-116, 2 × IC50, 24 h): 11.8%; Late Apop./Dead ([4]; HCT-116, 2 × IC50, 48 h): 17.7%; total apoptotic cells ([4]; HCT-116, 2 × IC50, 48 h): 44%
c1ccc(SSSc2ccccc2)cc1 [Compound 1, diphenyl trisulfide] | – | – | – | – | – | – | – | – | – | – | melting point: 58 to 60 °C; reduction of the level of TBARS ([5]; after 1 h of incubation): 64%; reduction of the level of TBARS ([5]; after 24 h): 48%; reduction of the level of TBARS ([5]; after 48 h): 37%
COc1ccccc1SSc1ccccc1OC [Compound 2, bis(2-methoxyphenyl) disulfide] | – | – | – | – | – | – | – | – | 24.0 | 25.2 | –
